In brackets after ≈: the same amount, converted by molar mass. Bounds are passed on as bounds.

The test system of one data set is A. baumannii (ATCC17978). In words: 50% growth inhibitory concentration (IC50) determination assay. The following applies: Acinetobacter baumannii, ATCC17978, A. baumannii ATCC17978; Iso-Sensitest broth; 0.098 = detection limit. It is filed as cell-based. The method in brief: (§1)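 First, DMSO stocks are diluted two-fold to give 50–0.097 μM final. Next, wells receive bacterial suspension in Iso-Sensitest broth for ~5×10^5 CFU/mL. Plates then sit at 35±2° C while OD at 600 nm is recorded every 20 min for 16 h.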

Data set [1] in a line: Lyophilisation solubility assay (LYSA). It is filed as physicochemical. As to conditions: phosphate buffer, pH 6.5, aqueous buffer, thermodynamic from solid, 0.05 M phosphate buffer, HPLC-UV. The method in brief: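 Duplicate samples made from 10 mM DMSO stock. DMSO evaporated and the residue taken up in 0.05 M phosphate buffer, pH 6.5, stirred 1 h and shaken 2 h, then left overnight. Filtrate and its 1/10 dilution quantified by HPLC-UV.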

The nature of data set [2]: Cytotoxicity assay (HepG2, CellTiter-Blue cell viability). It is filed as cell-based. As to conditions: human; HepG2 cells, 3 days treatment; "*": the detection limit; read-out: CC50. How it is done: The cytotoxicity of compounds of present invention was assessed by HepG2 assay. HepG2 cells (ATCC HB-8065™) were seeded into 96-well plates (1.2×10^4 cells per well) and treated with compounds for 3 days, cell viability was measured at day 3 post compound treatment using the CellTiter-Blue® Cell Viability Assay (Promega, Cat. No. G8082). 20 μL of Cell titer blue buffer were added to each well of the cells, which were incubated for 3 hours at 37° C., and the fluorescence value was measured by a plate reader (Molecular Device SpectraMax M2). The CC50 value of each compound is plotted with GraphPad Prism using four parameter logistic equation.

In data set [3] the test system is K. pneumoniae (ATCC10031). As to the kind of experiment: 50% growth inhibitory concentration (IC50) determination assay. It is filed as cell-based. As to conditions: Klebsiella pneumoniae, Iso-Sensitest broth, 0.098 = detection limit. The method in brief: as §1
The next data set relates to S. aureus (ATCC29213). The description is as above. It is filed as cell-based. As to conditions: Staphylococcus aureus, Iso-Sensitest broth, 0.098 = detection limit. In short, it runs like this:
as §1

As to `CNc1cc(F)c(F)c2c1[nH]c1ncc(-c3cnc4c(c3)c(=O)c(C(=O)O)cn4NCCOC)c(N3CC[C@H]4CN(C)C[C@H]43)c12` (relative stereo) [Example 5.01, 6-[4-[cis-5-methyl-2,3,3a,4,6,6a-hexahydropyrrolo[2,3-c]pyrrol-1-yl]-5,6-difluoro-8-(methylamino)-9H-pyrido[2,3-b]indol-3-yl]-1-(2-methoxyethylamino)-4-oxo-1,8-naphthyridine-3-carboxylic acid], 0.19 µM corresponded to half-maximal inhibition with A. baumannii (ATCC17978) (IC50). In data set [1], this molecule displayed a thermodynamic solubility of 425 µg/mL (≈ 687 µM). Besides, the cytotoxic concentration (CC50) at 3 days in data set [2] came out at 43500 nM.
Regarding `CNc1cc(F)c(F)c2c1[nH]c1ncc(-c3cnc4c(c3)c(=O)c(C(=O)O)cn4C)c(N3CCC4(CCN(C)C4)C3)c12` (centres unmarked) [Example 1.229], the IC50 is 0.297 µM in the data set on A. baumannii (ATCC17978), less than 0.098 µM in data set [3] and less than 0.098 µM in the data set on S. aureus (ATCC29213). This molecule displayed a solubility (thermodynamic) in data set [1] of 12 µg/mL (≈ 20.9 µM). In data set [2], the CC50 at 3 days amounted to 53100 nM.
Turning to `CNc1cc(F)c(F)c2c1[nH]c1ncc(-c3cnc4c(c3)c(=O)c(C(=O)O)cn4C)c(N3CC4CN(C)C[C@@H]4C3)c12` (some centres unmarked) [Example 1.227], the IC50 in the data set with A. baumannii (ATCC17978) is 0.294 µM; in data set [3] it was less than 0.098 µM; with S. aureus (ATCC29213), 0.132 µM. In data set [1], the solubility (thermodynamic) amounted to 12 µg/mL (≈ 21.4 µM). For the same molecule, the CC50 at 3 days in data set [2] came to 28000 nM.
The like results for `CCNc1cc(F)c(F)c2c1[nH]c1ncc(-c3cnc4c(c3)c(=O)c(C(=O)O)cn4C)c(N3CCC(CN(C)C)C3)c12` (centres unmarked) [Example 1.106] were, in that order, 0.244 µM, less than 0.098 µM, less than 0.098 µM, 19 µg/mL (≈ 33 µM) and 91300 nM.
The corresponding values for `CNc1cc(F)c(F)c2c1[nH]c1ncc(-c3cnc4c(c3)c(=O)c(C(=O)O)cn4C)c(N3CCC[C@H](N(C)C)C3)c12` [Example 3.06B] are 0.176 µM, less than 0.098 µM, less than 0.098 µM, 85 µg/mL (≈ 151 µM) and 40200 nM.
In turn, `CNc1cc(F)c(F)c2c1[nH]c1ncc(-c3cnc4c(c3)c(=O)c(C(=O)O)cn4C)c(N3CCN4CCOCC4C3)c12` (centres unmarked) [Example 1.134] displayed a thermodynamic solubility in data set [1] of 11 µg/mL (≈ 19.1 µM). Also, the CC50 at 3 days in data set [2] was greater than 100000 nM.
On to `CNc1cc(F)cc2c1[nH]c1ncc(-c3cnc4c(c3)c(=O)c(C(=O)O)cn4C)c(N3CCC[C@H]3CN(C)C)c12` [Example 1.162], for which the IC50 in the data set on A. baumannii (ATCC17978) was 0.283 µM; in data set [3], less than 0.098 µM; with S. aureus (ATCC29213) it was 0.162 µM. In data set [1], the thermodynamic solubility is 695 µg/mL (≈ 1280 µM). For the same molecule, the 50% cytotoxic concentration (CC50) at 3 days in data set [2] was found to be 67600 nM.
The like results for `CNc1cc(F)c(F)c2c1[nH]c1ncc(-c3cnc4c(c3)c(=O)c(C(=O)O)cn4C)c(N3CC[C@@H](CN4CCCC4)C3)c12` [Example 1.173] were, in that order, 0.216 µM, less than 0.098 µM, less than 0.098 µM, 106 µg/mL (≈ 180 µM) and 44900 nM.
The like results for `CCN(CC)CC1CN(c2c(-c3cnc4c(c3)c(=O)c(C(=O)O)cn4C)cnc3[nH]c4c(NC)cc(F)c(F)c4c23)CCO1` (centres unmarked) [Example 1.149] were, in that order, 0.362 µM, less than 0.098 µM, less than 0.098 µM, 530 µg/mL (≈ 875 µM) and 66600 nM.
The like results for `CNc1cc(F)c(F)c2c1[nH]c1ncc(-c3cnc4c(c3)c(=O)c(C(=O)O)cn4NC)c(N3CCCC(N(C)C)C3)c12` (centres unmarked) [Example 1.191] were, in that order, 0.197 µM, less than 0.098 µM, 0.195 µM, 181 µg/mL (≈ 314 µM) and 29100 nM.
Take `CNc1c(F)c(F)cc2c1[nH]c1ncc(-c3cnc4c(c3)c(=O)c(C(=O)O)cn4C)c(N3CCOC(CN(C)C)C3)c12` (centres unmarked) [Example 1.78]: the IC50 with A. baumannii (ATCC17978) was 0.326 µM; in data set [3], less than 0.098 µM; in the data set on S. aureus (ATCC29213), 0.343 µM. This molecule had a thermodynamic solubility in data set [1] of 530 µg/mL (≈ 918 µM). Moreover, the CC50 at 3 days in data set [2] came out at 42500 nM.
The corresponding values for `CNc1cc(F)c(F)c2c1[nH]c1ncc(-c3cnc4c(c3)c(=O)c(C(=O)O)cn4C)c(N3CCC(CN(C)C)C3)c12` (centres unmarked) [Example 1.135] are 0.153 µM, less than 0.098 µM, less than 0.098 µM, 266 µg/mL (≈ 474 µM) and 29300 nM.
The corresponding values for `CNc1cc(F)c(F)c2c1[nH]c1ncc(-c3cnc4c(c3)c(=O)c(C(=O)O)cn4NC)c(N3CCCC(CN(C)C)C3)c12` (centres unmarked) [Example 1.186] are 0.236 µM, less than 0.098 µM, less than 0.098 µM, 104 µg/mL (≈ 176 µM) and 45600 nM.
As to `CNc1cc(F)c(F)c2c1[nH]c1ncc(-c3cnc4c(c3)c(=O)c(C(=O)O)cn4NC)c(N3CCC[C@H]3CN(C)C)c12` [Example 1.217], the IC50 in the data set on A. baumannii (ATCC17978) is 0.187 µM; in data set [3] it was less than 0.098 µM; in the data set on S. aureus (ATCC29213), 0.12 µM. In addition, the solubility (thermodynamic) in data set [1] worked out at 190 µg/mL (≈ 330 µM). The CC50 at 3 days in data set [2] came to 27800 nM.
The like results for `CNc1cc(F)cc2c1[nH]c1ncc(-c3cnc4c(c3)c(=O)c(C(=O)O)cn4N3CCOCC3)c(N3CCOCC3)c12` [Example 1.71] were, in that order, 0.923 µM, less than 0.098 µM, less than 0.098 µM, 11 µg/mL (≈ 19.2 µM) and greater than 100000 nM.
The like results for `CNc1cc(F)cc2c1[nH]c1ncc(-c3cnc4c(c3)c(=O)c(C(=O)O)cn4C)c(N3CCOCC(CN(C)C)C3)c12` (centres unmarked) [Example 1.90] were, in that order, 0.411 µM, less than 0.098 µM, 0.216 µM, 700 µg/mL (≈ 1220 µM) and greater than 100000 nM.
Turning to `CNc1cc(F)cc2c1[nH]c1ncc(-c3cnc4c(c3)c(=O)c(C(=O)O)cn4C)c(N3CCC(N(C)C)C3)c12` (centres unmarked) [Example 1.75], the concentration for half-maximal inhibition (IC50) with A. baumannii (ATCC17978) is 0.108 µM; in data set [3] it was less than 0.098 µM; with S. aureus (ATCC29213), 0.108 µM. Besides, the solubility (thermodynamic) in data set [1] was determined as 152 µg/mL (≈ 287 µM). Also, the half-maximal cytotoxic concentration (CC50) at 3 days in data set [2] turned out to be 68500 nM.
`CNc1cc(F)c(F)c2c1[nH]c1ncc(-c3cnc4c(c3)c(=O)c(C(=O)O)cn4NC)c(N3CCOC(CN(C)C)C3)c12` (centres unmarked) [Example 1.181]: the concentration for half-maximal inhibition (IC50) in the data set with A. baumannii (ATCC17978) is 0.916 µM; in data set [3] it was less than 0.098 µM; with S. aureus (ATCC29213) it was 0.444 µM. Also, the solubility (thermodynamic) in data set [1] came to 70 µg/mL (≈ 118 µM). Moreover, the CC50 at 3 days in data set [2] was greater than 100000 nM.
The like results for `CNc1cc(F)cc2c1[nH]c1ncc(-c3cnc4c(c3)c(=O)c(C(=O)O)cn4C)c(N3CCN(C)CC3)c12` [Example 1.184] were, in that order, 0.148 µM, less than 0.098 µM, less than 0.098 µM, 52 µg/mL (≈ 101 µM) and 28700 nM.
The like results for `CNc1cc(F)cc2c1[nH]c1ncc(-c3cnc4c(c3)c(=O)c(C(=O)O)cn4C)c(N3CCO[C@@H](CN(C)C)C3)c12` [Example 3.02A] were, in that order, 0.268 µM, less than 0.098 µM, less than 0.098 µM, 480 µg/mL (≈ 858 µM) and greater than 100000 nM.
The like results for `CNc1cc(F)c(F)c2c1[nH]c1ncc(-c3cnc4c(c3)c(=O)c(C(=O)O)cn4C)c(N3CCC(N(C)C)CC3)c12` [Example 1.182] were, in that order, 0.423 µM, less than 0.098 µM, 0.177 µM, 147 µg/mL (≈ 262 µM) and 91700 nM.
With `CNc1cc(Cl)cc2c1[nH]c1ncc(-c3cnc4c(c3)c(=O)c(C(=O)O)cn4C)c(N3CCOC(CN(C)C)C3)c12` (centres unmarked) [Example 1.138], the 50% inhibitory concentration (IC50) with A. baumannii (ATCC17978) is 0.302 µM; in data set [3], less than 0.098 µM; with S. aureus (ATCC29213), less than 0.098 µM. In addition, the thermodynamic solubility in data set [1] is 91 µg/mL (≈ 158 µM). The cytotoxic concentration (CC50) at 3 days in data set [2] came to 47300 nM.
Regarding `CNc1cc(F)cc2c1[nH]c1ncc(-c3cnc4c(c3)c(=O)c(C(=O)O)cn4C)c(N3CCO[C@H](CN(C)C)C3)c12` [Example 3.02B], the 50% inhibitory concentration (IC50) is 0.444 µM in the data set on A. baumannii (ATCC17978), less than 0.098 µM in data set [3] and less than 0.098 µM in the data set on S. aureus (ATCC29213). The same molecule registered a thermodynamic solubility in data set [1] of 455 µg/mL (≈ 813 µM). Further, the half-maximal cytotoxic concentration (CC50) at 3 days in data set [2] was greater than 100000 nM.
On to `CNc1cc(F)c(Cl)c2c1[nH]c1ncc(-c3cnc4c(c3)c(=O)c(C(=O)O)cn4NC)c(N3CC[C@H]4CN(C)CC43)c12` (some centres unmarked) [Example 1.268], for which the IC50 with A. baumannii (ATCC17978) is 0.065 µM; in data set [3], less than 0.098 µM; in the data set with S. aureus (ATCC29213), less than 0.098 µM. Moreover, the thermodynamic solubility in data set [1] amounted to 24 µg/mL (≈ 40.6 µM). Also, the 50% cytotoxic concentration (CC50) at 3 days in data set [2] turned out to be 33400 nM.
Regarding `CNc1cc(F)c(Cl)c2c1[nH]c1ncc(-c3cnc4c(c3)c(=O)c(C(=O)O)cn4C)c(N3CCOCC3)c12` [Example 1.269], the 50% inhibitory concentration (IC50) with A. baumannii (ATCC17978) is 0.088 µM; in data set [3] it was less than 0.098 µM; in the data set on S. aureus (ATCC29213) it was less than 0.098 µM. In data set [2], the 50% cytotoxic concentration (CC50) at 3 days came to 40800 nM.

What is called IC50 is the concentration that inhibits the measured activity by half. By thermodynamic solubility is commonly meant solubility found after equilibrating the solid with the medium. Usually CC50 stands for the concentration that lowers cell viability or growth by half.

These data come from patent US10662203B2, “Pyrido[2,3-b]indole compounds for the treatment and prophylaxis of bacterial infection” (Hoffmann-La Roche Inc., priority 2017, dated 2020).
